The structures appear in SMILES notation. Where a name gives a salt, the structure may show the parent alone. Some results are limits rather than exact numbers.

In the first experiment the target is human σ1 receptor (Homo sapiens, UniProt Q99720). As to the kind of experiment: biochemical. Format: binding.
human σ1 receptor, sequence (Q99720 whole entry): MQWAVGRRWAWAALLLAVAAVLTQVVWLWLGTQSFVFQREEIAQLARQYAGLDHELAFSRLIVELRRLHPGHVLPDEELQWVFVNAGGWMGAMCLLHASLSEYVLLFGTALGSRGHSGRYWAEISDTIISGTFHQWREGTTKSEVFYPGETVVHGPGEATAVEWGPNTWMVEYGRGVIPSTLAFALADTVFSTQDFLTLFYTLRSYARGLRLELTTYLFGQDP
Details: not given
Further details: μ and σ1 dual binding: key to the marks not given beside the values.
`Cl.O=C1COC2(CCN(CCc3ccccc3)CC2)CN1Cc1nccn1Cc1ccccc1` [Example 168, 4-((1-benzyl-1H-imidazol-2-yl)methyl)-9-phenethyl-1-oxa-4,9-diazaspiro[5.5]undecan-3-one hydrochloride]: the “μ and σ1 dual binding” value is on record as “++”. Still for that read-out and setting: the same measure for `Cl.O=C1COC2(CCN(CCc3ccccc3)CC2)CN1CCc1ccccn1` [Example 169, 9-phenethyl-4-(2-(pyridin-2-yl)ethyl)-1-oxa-4,9-diazaspiro[5.5]undecan-3-one hydrochloride]: “++”. For the compound `CC1OC2(CCN(CCc3ccccc3)CC2)CN(Cc2ccn(C)n2)C1=O` (stereo not drawn) [Example 171, 2-methyl-4-((1-methyl-1H-pyrazol-3-yl)methyl)-9-phenethyl-1-oxa-4,9-diazaspiro[5.5]undecan-3-one], the Ki was less than 500 nM. Turning to `CC1OC2(CCN(CCc3ccccc3)CC2)CN(Cc2nccn2C)C1=O.Cl` (stereo not drawn) [Example 172, 2-methyl-4-((1-methyl-1H-imidazol-2-yl)methyl)-9-phenethyl-1-oxa-4,9-diazaspiro[5.5]undecan-3-one hydrochloride], the “μ and σ1 dual binding” value was “++”.

`CC1OC2(CCN(CCc3ccccc3)CC2)CN(Cc2cccc(C(F)(F)F)n2)C1=O` (stereo not drawn) [Example 174, 2-methyl-9-phenethyl-4-((6-(trifluoromethyl)pyridin-2-yl)methyl)-1-oxa-4,9-diazaspiro[5.5]undecan-3-one hydrochloride] showed a Ki of less than 100 nM.

With `CC1OC2(CCN(CCc3ccccc3)CC2)CN(CCc2cccnc2)C1=O` (stereo not drawn) [Example 175, 2-methyl-9-phenethyl-4-(2-(pyridin-3-yl)ethyl)-1-oxa-4,9-diazaspiro[5.5]undecan-3-one dihydrochloride], the Ki is less than 500 nM. Take `O=C1COC2(CCN(CCc3ccccc3)CC2)CN1Cc1ccc(C(F)(F)F)cn1` [Example 177, 9-phenethyl-4-((5-(trifluoromethyl)pyridin-2-yl)methyl)-1-oxa-4,9-diazaspiro[5.5]undecan-3-one hydrochloride]: the Ki was less than 100 nM. As for `Cl.O=C1COC2(CCN(CCc3ccccc3)CC2)CN1CCc1ccncc1` [Example 178, 9-phenethyl-4-(2-(pyridin-4-yl)ethyl)-1-oxa-4,9-diazaspiro[5.5]undecan-3-one hydrochloride], the “μ and σ1 dual binding” value was “++”.

As for `COCCN1CC2(CCN(CCc3ccccc3)CC2)OC2(CC2)C1=O.Cl` [Example 184, 12-(2-methoxyethyl)-8-phenethyl-4-oxa-8,12-diazadispiro[2.1.5.3]tridecan-13-one hydrochloride], the “μ and σ1 dual binding” value is reported as “++”.

Consider `Cl.O=C1COC2(CCN(Cc3ccccc3)CC2)CN1c1ccc(F)cc1` [Example 188, 9-benzyl-4-(4-fluorophenyl)-1-oxa-4,9-diazaspiro[5.5]undecan-3-one hydrochloride], for which the “μ and σ1 dual binding” value is “++”.

Still in this experiment, the particulars now being: read-out: μ and σ1 dual binding.
`CC1OC2(CCN(CCc3ccccc3)CC2)CN(CC(=O)N2CCOCC2)C1=O` (stereo not drawn) [Example 170, 2-methyl-4-(2-morpholino-2-oxoethyl)-9-phenethyl-1-oxa-4,9-diazaspiro[5.5]undecan-3-one hydrochloride]: the Ki was greater than 500 nM. On to `CC1OC2(CCN(CCc3ccccc3)CC2)CN(Cc2ncccc2F)C1=O` (stereo not drawn) [Example 173, 4-((3-fluoropyridin-2-yl)methyl)-2-methyl-9-phenethyl-1-oxa-4,9-diazaspiro[5.5]undecan-3-one], for which the Ki is less than 100 nM. As to `O=C1COC2(CCN(CCc3ccccc3)CC2)CN1Cc1ccc(F)cn1` [Example 176, 4-((5-fluoropyridin-2-yl)methyl)-9-phenethyl-1-oxa-4,9-diazaspiro[5.5]undecan-3-one hydrochloride], the Ki is less than 500 nM.

Take `O=C1COC2(CCN(CCc3ccccc3)CC2)CN1Cc1cccc([N+](=O)[O-])c1` [Example 179, 4-(3-nitrobenzyl)-9-phenethyl-1-oxa-4,9-diazaspiro[5.5]undecan-3-one]: the Ki is greater than 500 nM.

With `COCCCN1CC2(CCN(CCc3ccccc3)CC2)OC2(CC2)C1=O` [Example 180, 12-(3-methoxypropyl)-8-phenethyl-4-oxa-8,12-diazadispiro[2.1.5.3]tridecan-13-one hydrochloride], the Ki is less than 500 nM. For `N#CCCN1CC2(CCN(CCc3ccccc3)CC2)OC2(CC2)C1=O` [Example 181, 3-[13-oxo-8-phenethyl-4-oxa-8,12-diazadispiro[2.1.5.3]tridecan-12-yl]propanenitrile hydrochloride], the Ki was greater than 500 nM. Turning to `CN(C)C(=O)CCN1CC2(CCN(CCc3ccccc3)CC2)OC2(CC2)C1=O` [Example 182, N,N-dimethyl-3-[13-oxo-8-phenethyl-4-oxa-8,12-diazadispiro[2.1.5.3]tridecan-12-yl]propanamide hydrochloride], the Ki is greater than 500 nM. Consider `CC1OC2(CCN(CCc3ccccc3)CC2)CN(CC(C)(C)O)C1=O` (stereo not drawn) [Example 183, 4-(2-hydroxy-2-methylpropyl)-2-methyl-9-phenethyl-1-oxa-4,9-diazaspiro[5.5]undecan-3-one], for which the Ki was greater than 500 nM.

On to `O=C1N(CCOC2CCCCO2)CC2(CCN(CCc3ccccc3)CC2)OC12CC2` (stereo not drawn) [Example 185, 12-(2-((tetrahydro-2H-pyran-2-yl)oxy)ethyl)-8-phenethyl-4-oxa-8,12-diazadispiro[2.1.5.3]tridecan-13-one], for which the Ki was greater than 500 nM. `COC(=O)CCN1CC2(CCN(CCc3ccccc3)CC2)OC2(CC2)C1=O` [Example 186, methyl 3-(13-oxo-8-phenethyl-4-oxa-8,12-diazadispiro[2.1.5.3]tridecan-12-yl)propanoate]: the Ki was greater than 500 nM. Take `O=C1N(Cc2ccc(C(F)(F)F)cn2)CC2(CCN(CCc3ccccc3)CC2)OC12CC2` [Example 187, 8-phenethyl-12-{[5-(trifluoromethyl)pyridin-2-yl]methyl}-4-oxa-8,12-diazadispiro[2.1.5.3]tridecan-13-one dihydrochloride]: the Ki was less than 100 nM. With `O=C1COC2(CCN(CCc3ccccc3)CC2)CN1c1ccccc1F` [Example 189, 4-(2-fluorophenyl)-9-phenethyl-1-oxa-4,9-diazaspiro[5.5]undecan-3-one], the Ki was less than 500 nM.

`O=C1COC2(CCN(CCc3ccccc3)CC2)CN1c1ccc(F)cc1` [Example 190, 4-(4-fluorophenyl)-9-phenethyl-1-oxa-4,9-diazaspiro[5.5]undecan-3-one]: the Ki was less than 500 nM. Consider `O=C1COC2(CCN(CCc3ccccc3)CC2)CN1c1cccc(F)c1` [Example 191, 4-(3-fluorophenyl)-9-phenethyl-1-oxa-4,9-diazaspiro[5.5]undecan-3-one], for which the Ki is less than 500 nM.

As to `CC1OC2(CCN(CCc3ccccc3)CC2)CN(c2ccccc2F)C1=O` (stereo not drawn) [Example 192, 4-(2-fluorophenyl)-2-methyl-9-phenethyl-1-oxa-4,9-diazaspiro[5.5]undecan-3-one hydrochloride], the Ki was less than 100 nM. With `CC1OC2(CCN(CCc3ccccc3)CC2)CN(c2ccccc2Cl)C1=O` (stereo not drawn) [Example 193, 4-(2-chlorophenyl)-2-methyl-9-phenethyl-1-oxa-4,9-diazaspiro[5.5]undecan-3-one hydrochloride], the Ki is less than 100 nM.

On to `CC1OC2(CCN(CCc3ccccc3)CC2)CN(c2cccnc2)C1=O` (stereo not drawn) [Example 194, 2-methyl-9-phenethyl-4-(pyridin-3-yl)-1-oxa-4,9-diazaspiro[5.5]undecan-3-one hydrochloride], for which the Ki is less than 500 nM.

(Values after US10703765B2 (priority 2014, dated 2020).)
